Legend:
[1] = Solvent extraction of Lns, distribution ratio of Nd; settings: 13 mM Ligand 2 used instead of ligand 1; 0.1 M DGA; 1 M HNO3; 1 h
[2] = Solvent extraction of Lns, distribution ratio of La; settings: 13 mM Ligand 2 used instead of ligand 1; 0.1 M DGA; 1 M HNO3; 1 h
[3] = Solvent extraction of Lns, separation factor Nd/Pr; settings: 13 mM Ligand 2 used instead of ligand 1; 0.1 M DGA; 1 M HNO3; 1 h
[4] = Solvent extraction of Lns, distribution ratio of Gd; settings: 0.1 M DGA, 1 M HNO3, 1 h
Description: (§1) General procedure: a 500 microliter (μL) aqueous phase consisting of 7 mM Ln(III) (0.5 mM of each Ln(III)) in 1 M HNO3 without or with aqBLPhen 1 (3, 13, or 25 mM) was contacted with an equal volume of organic phase containing 0.1 M DGA (3, 4, or 5). The two phases were contacted in a 1:1 ratio of organic/aqueous by end-over-end rotation in individual 1.8 mL capacity snap-top Eppendorf tubes using a rotating wheel in an airbox set at 25.5±0.5° C. Contacts were performed in triplicate with a contact time of 1 hour. The samples were centrifuged at 1811 g for 2 min at room temperature to separate the phases. Each triplicate was then sub-sampled, using a 300 μL aliquot of the aqueous phase transferred to individual polypropylene tubes and diluted with 2% HNO3 for analysis using ICP-MS or ICP-OES. Two samples of the initial lanthanide solution were similarly prepared.
(§2) The ability of 1 and DGA to separate Lns was evaluated using a two-component, immiscible solvent system: nitric acid (aqueous phase containing 1) and n-dodecane with 10 vol % 1-octanol (oil phase containing DGA). The amount of Ln partitioned from the aqueous phase into the oil phase was measured using inductively coupled plasma optical emission spectroscopy or mass spectrometry. The Ln concentration in each phase was then used to calculate the separation efficiency.
(§3) The percentage of Lns in the aqueous and the oil phases is presented in FIGS. 1a-1i. for each DGA in the absence and presence of the aqueous complexant 1 (E=([Ln1]/[Ln1]0)×100%). The distribution ratios (i.e., D=[Ln1]org/[Ln1]aq) for select Lns are listed in Table 1, which also include selectivities (i.e., SFLn1/Ln2=DLn1/DLn2), for several Ln pairs. An efficient separation of Lns was achieved when DLn1>1 and DLn2<1 or ELn1>50% and ELn2<50%. […] Neither of the three DGAs can separate Lns in a single extraction stage.

[5] = Solvent extraction of Lns, distribution ratio of Sm; settings: 0.1 M DGA, 1 M HNO3, 1 h
Description: as §1, §2, §3

[6] = Extraction of 14 Lns from aqueous phase into oil phase; settings: 0.1 M DGA alone; 14 Lns 0.5 mM each; 1 M HNO3
Description: as §1, §2, §3

[7] = Solvent extraction of Lns, separation factor Sm/Nd; settings: 0.1 M DGA, 1 M HNO3, 1 h
Description: as §1, §2, §3

[8] = Solvent extraction of Lns, separation factor Dy/Nd; settings: 0.1 M DGA, 1 M HNO3, 1 h
Description: as §1, §2, §3

[9] = Solvent extraction of Lns, separation factor Dy/Nd; settings: 13 mM Ligand 2 used instead of ligand 1; 0.1 M DGA; 1 M HNO3; 1 h
[10] = Solvent extraction of Lns, separation factor Gd/La; settings: for SFGd/La separation factor: 0.1 M DGA, 1 M HNO3, 1 h
Description: as §1, §2, §3

[11] = Solvent extraction of Lns, distribution ratio of Sm; settings: 13 mM Ligand 2 used instead of ligand 1; 0.1 M DGA; 1 M HNO3; 1 h
[12] = Solvent extraction of Lns, separation factor Tb/Gd; settings: 0.1 M DGA, 1 M HNO3, 1 h
Description: as §1, §2, §3

[13] = Solvent extraction of Lns, distribution ratio of Gd; settings: 13 mM Ligand 2 used instead of ligand 1; 0.1 M DGA; 1 M HNO3; 1 h
[14] = Solvent extraction of Lns, separation factor Nd/Pr; settings: 0.1 M DGA, 1 M HNO3, 1 h
Description: as §1, §2, §3

[15] = Solvent extraction of Lns, separation factor Gd/La; settings: 13 mM Ligand 2 used instead of ligand 1; 0.1 M DGA; 1 M HNO3; 1 h
[16] = Solvent extraction of Lns, distribution ratio of La; settings: 1 M HNO3, 1 h
Description: as §1, §2, §3

[17] = Solvent extraction of Lns, distribution ratio of Nd; settings: 0.1 M DGA, 1 M HNO3, 1 h
Description: as §1, §2, §3

[18] = Solvent extraction of Lns, separation factor Sm/Nd; settings: 13 mM Ligand 2 used instead of ligand 1; 0.1 M DGA; 1 M HNO3; 1 h
[19] = Optimized separation of adjacent Ln pair Nd-Pr with 1 and Ligand 3
Description: The synergistic use of 1 and Ligand 3 was further optimized to maximize the separation of one adjacent Ln pair Nd—Pr using the percentage of Ln extracted as a guide. The separation of Nd and Pr reached equilibrium in less than 1 hour, and the D values for both increased at higher HNO3 and Ligand 3 concentrations (FIGS. 3b and 3c). Ligand 3, being a neutral ligand, requires co-extraction of counterions (i.e., three NO3^−) with Ln; thus, the extraction of Lns with DGA is favored at high nitrate concentration, and the process is reversed at low anion concentration.
The highest selectivity of 4.9±0.2 for Nd—Pr pair was obtained when separating 2.5 mM Nd and Pr, each using 13 mM of 1 in 1 M HNO3 with 0.1 M of Ligand 3 in the oil phase and equilibrating for 30 min at 25.5° C. Next, the recovery of Nd and Pr from each phase after extraction using the 1-Ligand 3-HNO3 system was investigated. […] The charged ligand (CO3^2−) outcompetes neutral ligand 1 in complexing with Ln ions; furthermore, the thermodynamics of the Ln2(CO3)3 formation is highly favorable due to high crystal lattice energy of the salt. The identity of the precipitate was confirmed using Fourier-transform infrared spectroscopy (FTIR), and the results are in good agreement with commercially available Pr and Nd carbonate salts. Ligand 1 remains in the aqueous solution that can be further recycled in the lanthanide separation process.

## CCCCCCCCN(C)C(=O)COCC(=O)N(C)CCCCCCCC [Ligand 3, N,N′-dimethyl-N,N′-di(n-octyl)diglycolamide]
[1]
  DNd distribution ratio: 21.4
[2]
  DLa distribution ratio: 2.65
[3]
  SFNd/Pr separation factor: 2.3
[4]; [1] 0 mM
  DGd distribution ratio: 2531
[4]; [1] 3 mM
  DGd distribution ratio: 1192
[4]; [1] 13 mM
  DGd distribution ratio: 552
[4]; [1] 25 mM
  DGd distribution ratio: 346
[5]; [1] 0 mM
  DSm distribution ratio: 1795
[5]; [1] 3 mM
  DSm distribution ratio: 222
[5]; [1] 13 mM
  DSm distribution ratio: 68.1
[5]; [1] 25 mM
  DSm distribution ratio: 42.2
[6]
  extraction of Lns from the aqueous phase into the oil phase: nearly quantitatively extracted all Lns
[7]; [1] 0 mM
  SFSm/Nd separation factor: 3.2
[7]; [1] 3 mM
  SFSm/Nd separation factor: 20
[7]; [1] 13 mM
  SFSm/Nd separation factor: 6.4
[7]; [1] 25 mM
  SFSm/Nd separation factor: 18
[8]; [1] 0 mM
  SFDy/Nd separation factor: 4.7
[8]; [1] 3 mM
  SFDy/Nd separation factor: 352
[8]; [1] 13 mM
  SFDy/Nd separation factor: 451
[8]; [1] 25 mM
  SFDy/Nd separation factor: 1313
[9]
  SFDy/Nd separation factor: 60
[10]; [1] 0 mM
  SFGd/La separation factor: 36
[10]; [1] 3 mM
  SFGd/La separation factor: 2010
[10]; [1] 13 mM
  SFGd/La separation factor: 1992
[10]; [1] 25 mM
  SFGd/La separation factor: 1512
[10]; combination of 1 and Ligand 3
  times higher selectivity for Gd over La than the TDdDGA-DOODA(C2) system: ~2 times
  times higher selectivity for Gd over La than the TODGA-DOODA(C2) system: 20 times
[11]
  DSm distribution ratio: 163
[12]; 13 mM Ligand 2 used instead of ligand 1
  SFTb/Gd separation factor: 1.6
[12]; [1] 0 mM
  SFTb/Gd separation factor: 1.1
[12]; [1] 3 mM
  SFTb/Gd separation factor: 2.0
[12]; [1] 13 mM
  SFTb/Gd separation factor: 3.0
[12]; [1] 25 mM
  SFTb/Gd separation factor: 3.0
[13]
  DGd distribution ratio: 360
[14]; [1] 0 mM
  SFNd/Pr separation factor: 2.1
[14]; [1] 3 mM
  SFNd/Pr separation factor: 4.0
[14]; [1] 13 mM
  SFNd/Pr separation factor: 4.2
[14]; [1] 25 mM
  SFNd/Pr separation factor: 3.2
[15]
  SFGd/La separation factor: 136
[16]; [1] 0 mM, 0.1 M DGA in n-dodecane with 10 vol % 1-octanol, 0.5 mM each Ln
  DLa distribution ratio: 71
[16]; [1] 3 mM, 0.1 M DGA
  DLa distribution ratio: 0.59
[16]; [1] 13 mM, 0.1 M DGA
  DLa distribution ratio: 0.28
[16]; [1] 25 mM, 0.1 M DGA
  DLa distribution ratio: 0.23
[17]; [1] 0 mM
  DNd distribution ratio: 558
[17]; [1] 3 mM
  DNd distribution ratio: 11.0
[17]; [1] 13 mM
  DNd distribution ratio: 10.7
[17]; [1] 25 mM
  DNd distribution ratio: 2.34
[18]
  SFSm/Nd separation factor: 7.6
[19]; 2.5 mM Nd and Pr each, 13 mM of 1 in 1 M HNO3, 0.1 M Ligand 3 in oil phase, 30 min, 25.5° C.
  highest selectivity for Nd-Pr pair: 4.9±0.2
[19]; 1 and Ligand 3
  time for the separation of Nd and Pr to reach equilibrium: less than 1 hour
[19]; three consecutive contacts with an equal volume of deionized water
  recovery of Nd and Pr from the spent oil phase: Near-quantitative recovery

Source: patent publication US12662714B2, “Method for separation of adjacent lanthanide elements” (UT-Battelle, LLC, priority 2022, dated 2026)
